Read-outs that look alike come from different tables or passages of the source.
Tests used:
[1] = target: T1, AChE from Electrophorus electricus (type VI-S) (Electrophorus electricus, UniProt O42275); assay: biochemical
T1 construct: purchased
Protocol: Acetylcholinesterase inhibitory activity was determined and modified from Ellman, as described elsewhere. […] The enzyme activity and the percentage inhibition were determined. […] All determinations were carried out at least three times and in triplicate wells.

[2] = target: T2, AChE-induced Aβ1–42 aggregation (Electrophorus electricus, UniProt O42275); assay: Inhibition of AChE-induced Aβ1–42 aggregation (thioflavin T assay); format: biochemical; settings: for inhibitory effect on AChE-induced Aβ1–42 aggregation (in words): ThT-based fluorescence assay
T2 construct: purchased
Protocol: Inhibition of AChE-induced Aβ1–42 aggregation was modified and measured using a thioflavin T (ThT) binding assay, as described elsewhere. Briefly, Aβ1–42 was dissolved in 50 mM phosphate buffer (pH 8.0). […] The fluorescence intensities were recorded, and the percentage of inhibition on aggregation was calculated by using the following equation: (1 – IFi/IFc) * 100%, in which IFi and IFc were the fluorescence of the AChE-induced Aβ1–42 aggregation group in the presence and absence of the test compounds, respectively, after subtracting the fluorescence of self Aβ1–42 aggregation and the background fluorescence of 5 μM ThT in the blank buffers. […] All determinations were carried out at least three times and in triplicate wells. […]

[3] = target: Aβ1–42 (Homo sapiens, UniProt P05067); assay: Inhibition of self-induced Aβ1–42 aggregation (thioflavin T assay); format: biochemical; settings: ThT fluorescence, Aβ1–42, 48 h at 37 °C, mean ± SD; read-out: Self-Induced Aβ IC50
Protocol: Inhibition of self-induced Aβ1–42 aggregation was assayed, as described elsewhere. […] After incubation, the samples were mixed with […] glycine/NaOH buffer (pH 8.5) containing 5 μM ThT. […] The fluorescence intensities were recorded, and the percentage of inhibition on aggregation was calculated by using the following equation: (1 − IFi/IFc) * 100% in which IFi and IFc were the fluorescence intensities obtained for Aβ1-42 aggregation group in the presence and absence of the test compounds, respectively, after subtracting the background fluorescence of 5 μM ThT in the blank buffers. […] The experiment was done in independent triplicates. […]

[4] = test system: SH-SY5Y cells; assay: Cytotoxicity in SH-SY5Y cells (MTT); format: cell-based; settings: 0.1 to 10 µM for 24 h
Protocol: (§1) Human neuroblastoma cells (SH-SY5Y) were cultured in Dulbecco’s Modified Eagle Medium (DMEM/Ha’s F12) containing 50 IU/mL penicillin, […] streptomycin, 2 mM L-glutamine, and 10% fetal bovine serum. Cells were maintained at 37 °C in a humidified incubator in an atmosphere of 5% CO2 For the assay, the SH-SY5Y cells, at a density of 5 × 10^5 cell/mL, were seeded in a 96-well plate and incubated for 48 h.
For cytotoxicity evaluation, the cells were treated with potential coumarin derivatives in various concentrations for 24 h. After that, cell viability was determined by staining the cells with 3-(4, 5-dimethyl-2-thiazolyl)-2, 5-diphenyl-2H-tetrazolium bromide, and MTT (5 mg/mL in PBS) for 2 h. The optical density of each well was measured at 550 nm in a […] Accureader M965 microplate reader.

[5] = test system: SH-SY5Y cells; assay: Neuroprotection against H2O2-induced cell damage (MTT); format: cell-based, Human; settings: pre-incubation with 10 µM for 24 h, then 100 µM H2O2 for 2 h, compared to H2O2 treated group
Protocol: as §1
For neuroprotection against H2O2 investigation, the cells were pretreated with coumarin in various concentrations for 24 h. After removing unabsorbed test compounds by washing with phosphate buffer saline, the cells were treated with 100 µM H2O2 for 2 h to induce oxidative stress. Cell viability was determined by the MTT colorimetric method. The optical density of each well was measured at 550 nm. […] All data were expressed as a percentage of non-H2O2-treated groups (control group). The cell viability of the control group was expressed as 100%. The experiment was done in independent triplicates (4 wells/group).
The neuroprotective effect of phellopterin against oxidative stress was determined by colorimetric MTT assay in SH-SY5Y cells. Hydrogen peroxide at concentration 100 µM was used to induce oxidative damage. SH-SY5Y cells were pretreated with phellopterin at a concentration of 0.1 to 10 µM for 24 h prior to exposure to H2O2 for 2 h.

[6] = test system: SH-SY5Y cells; assay: Neuroprotection against Aβ1–42 toxicity (MTT); format: cell-based, Human; settings: 0.1 to 10 µM with 25 µM Aβ1–42 for 24 h, compared to Aβ1–42-induced group
Protocol: as §1
For neuroprotection against Aβ1–42 toxicity, the Aβ1–42 preparation was modified from. Briefly, lyophilized Aβ1–42 was reconstituted in sterile water and keep at −80 °C until further use. […] Cell viability was determined by the MTT colorimetric method. The optical density of each well was measured at 550 nm in a […] Accureader M965 microplate reader. […] All data were expressed as a percentage of non-Aβ1–42-treated groups (control group). Cell viability of the control group was expressed as 100%. […]
Aβ has been implicated in the pathogenesis of AD. […] Therefore, the neuroprotective effect against Aβ1–42 toxicity of phellopterin was also determined in SH-SY5Y cells. Aβ1–42 at concentration 25 µM was treated with cells in the presence or absence of phellopterin at a concentration 0.1 to 10 µM for 24 h, and then the cell viability was determined by MTT assay. […]

[7] = Ellman method, 0.2 Units/mL AChE, pH 7.4, mean ± SD, read-out: AChE assay IC50

T1 sequence (O42275 24-633): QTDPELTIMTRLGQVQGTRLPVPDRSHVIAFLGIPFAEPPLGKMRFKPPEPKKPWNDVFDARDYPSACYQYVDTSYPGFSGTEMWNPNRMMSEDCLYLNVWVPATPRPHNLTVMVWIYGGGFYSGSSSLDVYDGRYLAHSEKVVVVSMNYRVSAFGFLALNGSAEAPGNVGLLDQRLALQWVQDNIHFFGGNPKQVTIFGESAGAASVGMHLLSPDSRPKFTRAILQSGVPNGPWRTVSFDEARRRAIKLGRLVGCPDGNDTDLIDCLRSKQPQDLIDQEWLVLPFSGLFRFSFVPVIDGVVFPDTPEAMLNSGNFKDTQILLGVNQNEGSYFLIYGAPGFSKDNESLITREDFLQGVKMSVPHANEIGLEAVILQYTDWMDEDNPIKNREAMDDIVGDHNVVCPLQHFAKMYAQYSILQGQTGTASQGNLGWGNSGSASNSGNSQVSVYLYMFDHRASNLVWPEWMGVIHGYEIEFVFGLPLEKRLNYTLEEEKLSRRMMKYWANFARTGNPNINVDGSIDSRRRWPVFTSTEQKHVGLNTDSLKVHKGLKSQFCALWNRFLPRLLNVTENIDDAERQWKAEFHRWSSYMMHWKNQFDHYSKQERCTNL
T2 sequence (O42275 24-633): as above
Sequence of Aβ1–42 (P05067 672-713 limits assumed): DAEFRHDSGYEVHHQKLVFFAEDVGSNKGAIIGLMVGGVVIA

Compound | IC50 [1, 7] [µM] | IC50 [2] [µM] | IC50 [3] [µM] | inhibitory effect on AChE-induced Aβ1–42 aggregation (in words) [2] | IC50 [1] [µM] | viability of SH-SY5Y cells (cytotoxicity) [4] | effect on H2O2-induced cell damage (cell viability) [5] | effect on Aβ1–42-induced cell damage (cell viability) [6]
COc1cc(OC)c2ccc(=O)oc2c1OCC=C(C)C [Artanin, artanin] | 51 ± 2 | 98 ± 19 | 124 ± 10 | – | – | – | – | –
COc1cc2oc(=O)ccc2c(OC)c1O [Fraxinol, fraxinol] | 18 ± 7 | > 500 | 209 ± 21 | did not have inhibitory effects | – | – | – | –
COc1c2ccoc2c(OC)c2oc(=O)ccc12 [Isopimpinellin, isopimpinellin] | – | > 500 | 125 ± 13 | did not have inhibitory effects | 41 ± 1 | – | – | –
COc1c2ccoc2c(OCC=C(C)C)c2oc(=O)ccc12 [Phellopterin, phellopterin] | 38 ± 3 | 97 ± 7 | 95 ± 3 | – | – | no significant change | significantly attenuated the H2O2-induced cell damage | significantly increase cell viability
COC1=CC(=O)c2cc(C)cc(-c3c(OC)cc(OC)c4ccc(=O)oc34)c2C1=O [Toddacoumaquinone, toddacoumaquinone] | 46 ± 12 | 72 ± 5 | 145 ± 2 | – | – | – | – | –
COc1cc2oc(=O)ccc2c(OC)c1CC=C(C)C [Toddaculin, toddaculin] | 53 ± 9 | 232 ± 10 | 143 ± 4 | – | – | – | – | –
COc1cc(OC)c2ccc(=O)oc2c1/C=C/C(C)=O [Toddalenone, toddalenone] | 40 ± 4 | 211 ± 29 | 99 ± 1 | – | – | – | – | –
COc1cc2oc(=O)ccc2c(OC)c1C[C@@H](O)C(C)(C)O [Toddalolactone, toddalolactone] | 49 ± 5 | 105 ± 9 | 220 ± 1 | – | – | – | – | –
COc1cc2oc(=O)ccc2c(OC)c1CC(=O)C(C)C [Toddanone, toddanone] | 46 ± 3 | 110 ± 2 | 76 ± 1 | – | – | – | – | –
